# Reference: patent US20240083857A1, “2-Methyl-Quinazolines” (Bayer Pharma Aktiengesellschaft, priority 2017, published 2024)
# Legend:
# [1] = molecular target: K-Ras^G12C : hSOS1 interaction (Homo sapiens, UniProt Q07889); test: Biochemical assay 1: K-Ras^G12C interaction assay with hSOS1 (HTRF); assay type: binding; details: for IC50: read-out: Assay 1 (KRAS-SOS Interaction) activity expressed as IC50
# Protocol: Biochemical assay 1: K-Ras^G12C Interaction Assay with hSOS1
# This assay quantifies the equilibrium interaction of human SOS1 with K-Ras^Gl2C. Detection of the interaction is achieved by measuring homogenous time-resolved fluorescence resonance energy transfer (HTRF) from antiGST-Europium (FRET donor) bound to GST-K-Ras^G12C to anti-6His-XL665 bound to His-tagged hSOS1 (FRET-acceptor).
# The assay buffer contained 5 mM HEPES pH 7.4 (Applichem), 150 mM NaCl (Sigma), 10 mM EDTA (Promega), 1 mM DTT (Thermofisher), 0.05% BSA Fraction V, pH 7.0, (ICN Biomedicals), 0.0025% (v/v) Igepal (Sigma) and 100 mM KF (FLUKA).
# Concentrations of protein batches used were optimized to be within the linear range of the HTRF signal. A Ras working solution was prepared in assay buffer containing typically 10 nM GST-hK-RasG12C and 2 nM antiGST-Eu(K) (Cisbio, France). A SOS working solution was prepared in assay buffer containing typically 20 nM His-hSOS1 and 10 nM anti-6His-XL665 (Cisbio, France). An inhibitor control solution was prepared in assay buffer containing 10 nM anti-6His-XL665 without hSOS1.
# (§1) Fifty nl of a 100-fold concentrated solution of the test compound in DMSO were transferred into a black microtiter test plate (384 or 1536, Greiner Bio-One, Germany). For this, either a Hummingbird liquid handler (Digilab, MA, USA) or an Echo acoustic system (Labcyte, CA, USA) was used.
# (§2) All steps of the assay were performed at 20° C. A volume of 2.5 μl of the Ras working solution was added to all wells of the test plate using a Multidrop dispenser (Thermo Labsystems). After 2 min preincubation, 2.5 μl of the SOS working solution were added to all wells except for those wells at the side of the test plate that were subsequently filled with 2.5 μl of the inhibitor control solution. After 60 min incubation the fluorescence was measured with a Pherastar (BMG, Germany) using the HTRF module (excitation 337 nm, emission 1: 620 nm, emission 2: 665 nm).
# (§3) IC50 values were calculated by 4-Parameter fitting using a commercial software package (Genedata Screener, Switzerland).
# [2] = molecular target: human SOS1 (nucleotide exchange of K-Ras^G12C) (Homo sapiens, UniProt Q07889); test: Biochemical assay 2: K-Ras^G12C activation assay by hSOS1 at high GTP concentration (HTRF); details: high GTP; for IC50: read-out: Assay 2 (KRAS-Activation by SOS high GTP) activity expressed as IC50
# From the text: Biochemical Assay 2: K-Ras^G12C Activation Assay by hSOS1 at High GTP Concentration
# This assay quantifies human SOS1-mediated nucleotide exchange of K-Ras^G12C preloaded with a fluorescent […] and in presence of an excess of free GTP. Loaded hK-Ras^G12C generates a high HTRF-signal by energy transfer from antiGST-Terbium (FRET donor) bound to K-Ras to the loaded fluorescent GDP analog (FRET-acceptor). SOS1 activity exchanges the fluorescent GDP for non-fluorescent GTP and therefore leads to a reduction of the HTRF signal.
# The fluorescent GDP-analog EDA-GDP-Dy647P1 (2′/3′-O-(2-Aminoethyl-carbamoyl)-guanosine-5′-diphosphate labelled with Dy647P1 (Dyomics GmbH, Germany)) was synthesized by Jena Biosciences GmbH (Germany) and supplied as a 1 mM aqueous solution.
# Concentrations of protein batches used were optimized to be within the linear range of the HTRF signal.
# Preparation of GST-tagged hK-Ras^Gl2C loaded with fluorescent nucleotide was performed as follows: incubation of 11.5 μM hK-Ras^Gl2C with 5-fold excess GDP-Dy647 nucleotide (54 μM) in 500 μl NLS-buffer (RAS activation Kit Jena Bioscience, Kat. #PR-950) for 10 min at 37° C. Addition of 20 μl 1 M MgCl2 (Sigma) to final 40 mM and store on ice. Purification into buffer (10 mM HEPES pH 7.4 (Applichem), 150 mM NaCl (Sigma), 5 mM MgCl2 (Sigma)) by use of a PD-Minitrap desalting column (GE Healthcare). Concentration of 1 ml purified hK-Ras-GDP-Dy647 is approx. 4-5 μM.
# (§4) The assay buffer contained 10 mM HEPES pH 7.4 (Applichem), 150 mM NaCl (Sigma), 5 mM MgCl2 (Sigma), 1 mM DTT (Thermofisher), 0.05% BSA Fraction V, pH 7.0, (ICN Biomedicals), 0.0025% (v/v) Igepal (Sigma).
# A Ras working solution was prepared in assay buffer containing typically 80 nM loaded GST-hK-RasG12C-EDA-GDP-Dy647P1 and 2 nM antiGST-Tb (Cisbio, France). A hSOS1 working solution was prepared in assay buffer containing typically 8 nM His-hSOS1 and 100 μM GTP (Jena Bioscience, Germany). An inhibitor control solution was prepared in assay buffer containing the same concentration of […].
# as §1
# as §2, with “hSOS1” for “SOS”, “20” for “60”
# as §3
# [3] = molecular target: human SOS1 (loading of human K-Ras^G12C-GDP with fluorescent GTP-analog) (Homo sapiens, UniProt Q07889); test: Biochemical assay 3: K-Ras^G12C activation assay by hSOS1 (HTRF); details: read-out: Assay 3 (KRAS-Activation by SOS no GTP) activity expressed as % inhibition at 20 μM; no GTP; at 20 μM
# From the text: Biochemical assay 3: K-Ras^G12C Activation Assay by hSOS1
# K-Ras is a small GTPase that can bind GDP and GTP. The guanine nucleotide exchange factor SOS catalyzes the activation of K-Ras by promoting the exchange of GDP to GTP. SOS binds to K-Ras-GDP thereby opening the GDP-binding pocket to facilitate GDP release. Rebinding of excess nucleotide leads to dissociation of the K-Ras-SOS intermediate complex leaving K-Ras loaded with the nucleotide.
# This assay quantifies human SOS1-mediated loading of human K-Ras^G12C-GDP with a fluorescent GTP-analog. Detection of successful loading is achieved by measuring homogenous time-resolved fluorescence resonance energy transfer (HTRF) from antiGST-Terbium (FRET donor) bound to GST-K-RasG12C to the loaded fluorescent GTP analog (FRET-acceptor).
# The fluorescent GTP-analog EDA-GTP-Dy647P1 (2′/3′-O-(2-Aminoethyl-carbamoyl)-guanosine-5′-triphosphate labelled with Dy647P1 (Dyomics GmbH, Germany)) was synthesized by Jena Biosciences GmbH (Germany) and supplied as a 1 mM aqueous solution.
# as §4
# Concentrations of protein batches used were optimized to be within the linear range of the HTRF signal. A Ras working solution was prepared in assay buffer containing typically 100 nM GST-hK-RasG12C and 2 nM antiGST-Tb (Cisbio, France). A hSOS1 working solution was prepared in assay buffer containing typically 20 nM hSOS1 and 200 nM EDA-GTP-Dy647P1. An inhibitor control solution was prepared in assay buffer containing 200 nM EDA-GTP-Dy647P1 without hSOS1.
# as §1
# as §2, with “After 10” for “After 2”, “the hSOS1” for “the SOS”, “After 30” for “After 60”
# as §3
smiles,measurement,setting,value
"COc1cc2nc(C)nc(N[C@@H](C)c3ccc(/C=C/C4CCCCC4)s3)c2cc1OC (racemic) [Example 157, N-[1-{5-[(E)-2-cyclohexylethenyl]thiophen-2-yl}ethyl]-6,7-dimethoxy-2-methylquinazolin-4-amine]",inhibition at 20 µM,[1]; read-out: Assay 1 (KRAS-SOS Interaction) activity expressed as % inhibition at 20 μM,44%
same,inhibition at 20 µM,"[2]; read-out: Assay 2 (KRAS-Activation by SOS high GTP) activity expressed as % inhibition at 20 μM, at 20 μM",19%
same,inhibition at 20 µM,[3],12%
"COc1cc2nc(C)nc(N[C@@H](C)c3ccc(-c4ccccc4)s3)c2cc1OC (stereo in doubt) [Example 70, 6,7-dimethoxy-2-methyl-N-[1-(5-phenylthiophen-2-yl)ethyl]quinazolin-4-amine]",IC50,[1],6.82 µM
same,IC50,[2],8.62 µM
same,inhibition at 20 µM,[3],47%
"COc1cc2nc(C)nc(N[C@@H](C)c3ccc(-c4ccc(-c5nnc(C)o5)cc4)s3)c2cc1OC (racemic) [Example 128, 6,7-dimethoxy-2-methyl-N-[1-{5-[4-(5-methyl-1,3,4-oxadiazol-2-yl)phenyl]thiophen-2-yl}ethyl]quinazolin-4-amine]",IC50,[1],13.9 µM
same,IC50,[2],16.9 µM
"COc1cc2nc(C)nc(N[C@@H](C)c3ccc(-c4ccc(CO)s4)s3)c2cc1OC (racemic) [Example 52, (5′-{1-[(6,7-dimethoxy-2-methylquinazolin-4-yl)amino]ethyl}-2,2′-bithiophen-5-yl)methanol]",IC50,[1],4.29 µM
same,IC50,[2],5.46 µM
"COc1cc2nc(C)nc(N[C@@H](C)c3ccc(-c4cccc(S(C)(=O)=O)c4)s3)c2cc1OC (racemic) [Example 173, 6,7-dimethoxy-2-methyl-N-[1-{5-[3-(methylsulfonyl)phenyl]thiophen-2-yl}ethyl]quinazolin-4-amine]",IC50,[1],6.88 µM
same,IC50,[2],8.05 µM
"COCc1ccccc1-c1ccc([C@H](C)Nc2nc(C)nc3cc(OC)c(OC)cc23)s1 (racemic) [Example 50, 6,7-dimethoxy-N-[1-{5-[2-(methoxymethyl)phenyl]thiophen-2-yl}ethyl]-2-methylquinazolin-4-amine]",IC50,[1],9.85 µM
same,IC50,[2],20 µM
"COc1cc2nc(C)nc(N[C@@H](C)c3ccc(-c4ccc(CNC(C)=O)cc4)s3)c2cc1OC (racemic) [Example 138, N-[4-(5-{1-[(6,7-dimethoxy-2-methylquinazolin-4-yl)amino]ethyl}thiophen-2-yl)benzyl)acetamide]",IC50,[1],5.57 µM
same,IC50,[2],7.43 µM
"COc1cc2nc(C)nc(N[C@@H](C)c3ccc(-c4ccc(S(C)(=O)=O)cc4)s3)c2cc1OC (racemic) [Example 149, 6,7-dimethoxy-2-methyl-N-[1-{5-[4-(methylsulfonyl)phenyl]thiophen-2-yl}ethyl]quinazolin-4-amine]",IC50,[1],2.36 µM
same,IC50,[2],4.3 µM
"COc1cc2nc(C)nc(N[C@@H](C)c3ccc(-c4cccc(C(=O)N(C)C)c4)s3)c2cc1OC (racemic) [Example 51, 3-(5-{1-[(6,7-dimethoxy-2-methylquinazolin-4-yl)amino]ethyl}thiophen-2-yl)-N,N-dimethylbenzamide]",IC50,[1],5.63 µM
same,IC50,[2],5.9 µM
"COc1cc2nc(C)nc(N[C@@H](C)c3ccc(-c4cccc(CNS(C)(=O)=O)c4)s3)c2cc1OC (racemic) [Example 139, N-[3-(5-{1-[(6,7-dimethoxy-2-methylquinazolin-4-yl)amino]ethyl}thiophen-2-yl)benzyl]methanesulfonamide]",IC50,[1],4.7 µM
same,IC50,[2],6.13 µM
"COc1cc2nc(C)nc(N[C@@H](C)c3ccc(-c4cncnc4)s3)c2cc1OC (racemic) [Example 42, 6,7-dimethoxy-2-methyl-N-{1-[5-(pyrimidin-5-yl)thiophen-2-yl]ethyl}quinazolin-4-amine]",IC50,[1],4.27 µM
same,IC50,[2],5.58 µM
"COc1cc2nc(C)nc(N[C@@H](C)c3ccc(-c4ccc(C(=O)N(C)C)cc4)s3)c2cc1OC (racemic) [Example 176, 4-(5-{1-[(6,7-dimethoxy-2-methylquinazolin-4-yl)amino]ethyl}thiophen-2-yl)-N,N-dimethylbenzamide]",IC50,[1],3.49 µM
same,IC50,[2],5.82 µM
"COc1cc2nc(C)nc(N[C@@H](C)c3ccc(-c4ccc(CNS(C)(=O)=O)cc4)s3)c2cc1OC (racemic) [Example 140, N-[4-(5-{1-[(6,7-dimethoxy-2-methylquinazolin-4-yl)amino]ethyl}thiophen-2-yl)benzyl]methanesulfonamide]",IC50,[1],5.33 µM
same,IC50,[2],5.26 µM
"COc1cc2nc(C)nc(N[C@@H](C)c3ccc(-c4cccc(NS(C)(=O)=O)c4)s3)c2cc1OC (racemic) [Example 165, N-[3-(5-{1-[(6,7-dimethoxy-2-methylquinazolin-4-yl)amino]ethyl}thiophen-2-yl)phenyl]methanesulfonamide]",IC50,[1],10.6 µM
same,IC50,[2],16.4 µM
